Our source for the EC50 and Emax values is patent US8642609B2, “Modulators of ATP-binding cassette transporters” (Vertex Pharmaceuticals Incorporated, priority 2003, dated 2014).

This experiment concerns the target T1, ΔF508-CFTR (Homo sapiens, UniProt P13569, DEL508-508).
T1 construct: expressed in transfected cells
The experiment can be described thus: Membrane potential optical assay (FRET/VIPR), identification of correction compounds. It counts as cell-based. The settings on record: for Emax: relative efficacy. From the text:
I) Membrane Potential Optical Methods for Assaying ΔF508-CFTR Modulation Properties of Compounds
The optical membrane potential assay utilized voltage-sensitive FRET sensors described by Gonzalez and Tsien (See, Gonzalez, J. E. and R. Y. Tsien (1995) “Voltage sensing by fluorescence resonance energy transfer in single cells” Biophys J 69(4): 1272-80, and Gonzalez, J. E. and R. Y. Tsien (1997) “Improved indicators of cell membrane potential that use fluorescence resonance energy transfer” Chem Biol 4(4): 269-77) in combination with instrumentation for measuring fluorescence changes such as the Voltage/Ion Probe Reader (VIPR) (See, Gonzalez, J. E., K. Oades, et al. (1999) “Cell-based assays and instrumentation for screening ion-channel targets” Drug Discov Today 4(9): 431-439).
These voltage sensitive assays are based on the change in fluorescence resonant energy transfer (FRET) between the membrane-soluble, voltage-sensitive dye, DiSBAC2(3), and a fluorescent phospholipid, CC2-DMPE, which is attached to the outer leaflet of the plasma membrane and acts as a FRET donor. Changes in membrane potential (Vm) cause the negatively charged DiSBAC2(3) to redistribute across the plasma membrane and the amount of energy transfer from CC2-DMPE changes accordingly. The changes in fluorescence emission were monitored using VIPR™ II, which is an integrated liquid handler and fluorescent detector designed to conduct cell-based screens in 96- or 384-well microtiter plates.
Identification of Correction Compounds
To identify small molecules that correct the trafficking defect associated with ΔF508-CFTR; a single-addition HTS assay format was developed. The cells were incubated in serum-free medium for 16 hrs at 37° C. in the presence or absence (negative control) of test compound. As a positive control, cells plated in 384-well plates were incubated for 16 hrs at 27° C. to “temperature-correct” ΔF508-CFTR. The cells were subsequently rinsed 3× with Krebs Ringers solution and loaded with the voltage-sensitive dyes. To activate ΔF508-CFTR, 10 μM forskolin and the CFTR potentiator, genistein (20 μM), were added along with Cl^−-free medium to each well. The addition of Cl^−-free medium promoted Cl^− efflux in response to ΔF508-CFTR activation and the resulting membrane depolarization was optically monitored using the FRET-based voltage-sensor dyes.
NIH3T3 mouse fibroblasts stably expressing ΔF508-CFTR are used for optical measurements of membrane potential. The cells are maintained at 37° C. in 5% CO2 and 90% humidity in Dulbecco's modified Eagle's medium supplemented with 2 mM glutamine, 10% fetal bovine serum, 1×NEAA, β-ME, 1× pen/strep, and 25 mM HEPES in 175 cm^2 culture flasks. For all optical assays, the cells were seeded at 30,000/well in 384-well matrigel-coated plates and cultured for 2 hrs at 37° C. before culturing at 27° C. for 24 hrs. for the potentiator assay. For the correction assays, the cells are cultured at 27° C. or 37° C. with and without compounds for 16-24 hours B) Electrophysiological Assays for assaying ΔF508-CFTR modulation properties of compounds

Usually EC50 stands for the midpoint of the concentration-response curve. The term Emax denotes the maximal effect, on the per cent scale that the assay sets.

T1 sequence (P13569 with tags, fused parts or gaps DEL508-508): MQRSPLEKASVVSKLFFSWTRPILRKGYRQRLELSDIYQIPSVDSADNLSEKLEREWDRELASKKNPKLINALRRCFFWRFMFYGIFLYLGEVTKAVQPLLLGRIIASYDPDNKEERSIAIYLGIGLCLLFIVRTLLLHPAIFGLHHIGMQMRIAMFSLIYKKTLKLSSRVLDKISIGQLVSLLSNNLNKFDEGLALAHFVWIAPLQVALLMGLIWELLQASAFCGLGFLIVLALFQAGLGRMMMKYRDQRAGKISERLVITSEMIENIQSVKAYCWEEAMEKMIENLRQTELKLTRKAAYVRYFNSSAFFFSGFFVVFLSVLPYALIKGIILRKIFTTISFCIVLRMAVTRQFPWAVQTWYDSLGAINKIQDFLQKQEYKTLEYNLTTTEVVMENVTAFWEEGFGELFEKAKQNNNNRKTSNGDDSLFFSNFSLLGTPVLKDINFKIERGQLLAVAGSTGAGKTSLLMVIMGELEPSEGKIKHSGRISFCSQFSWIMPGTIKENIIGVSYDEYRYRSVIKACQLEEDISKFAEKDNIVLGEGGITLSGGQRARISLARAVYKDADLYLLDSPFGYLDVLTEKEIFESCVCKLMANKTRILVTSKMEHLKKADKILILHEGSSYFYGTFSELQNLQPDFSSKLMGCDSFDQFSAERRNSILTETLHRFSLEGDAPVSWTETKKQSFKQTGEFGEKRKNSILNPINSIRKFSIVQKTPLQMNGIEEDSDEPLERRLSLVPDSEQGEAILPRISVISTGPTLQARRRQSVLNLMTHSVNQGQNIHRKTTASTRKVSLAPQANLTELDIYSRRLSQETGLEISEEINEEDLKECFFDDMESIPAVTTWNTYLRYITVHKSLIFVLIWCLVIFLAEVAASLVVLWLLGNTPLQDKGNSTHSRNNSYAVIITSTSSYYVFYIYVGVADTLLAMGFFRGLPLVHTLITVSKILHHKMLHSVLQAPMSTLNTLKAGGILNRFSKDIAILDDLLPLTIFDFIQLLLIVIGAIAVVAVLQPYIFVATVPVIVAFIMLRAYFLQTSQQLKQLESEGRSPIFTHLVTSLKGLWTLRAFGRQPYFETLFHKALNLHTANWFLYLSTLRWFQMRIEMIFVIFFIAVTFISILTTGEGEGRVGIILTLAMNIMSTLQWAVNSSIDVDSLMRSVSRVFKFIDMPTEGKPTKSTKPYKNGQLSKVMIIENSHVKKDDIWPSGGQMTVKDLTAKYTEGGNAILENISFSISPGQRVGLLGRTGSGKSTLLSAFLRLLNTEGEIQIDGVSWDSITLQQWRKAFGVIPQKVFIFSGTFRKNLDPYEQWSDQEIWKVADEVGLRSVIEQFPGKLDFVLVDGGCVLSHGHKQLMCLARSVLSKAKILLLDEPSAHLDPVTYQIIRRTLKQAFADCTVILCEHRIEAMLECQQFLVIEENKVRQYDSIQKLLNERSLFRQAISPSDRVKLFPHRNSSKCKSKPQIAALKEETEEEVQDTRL

As for `Cc1cccc(NC(=O)N2CCN(C(C)c3nc4ccc(Cl)cc4c(=O)n3C)CC2C)c1` (stereo not drawn) [compound 1], the EC50 is 25 to 60 µM and the Emax is 25 to 100%.

As to `CC(c1nc2ccc(Cl)cc2c(=O)n1C)N1CCN(C(=O)Nc2ccccc2Br)C(C)C1` (stereo not drawn) [compound 2], the EC50 fell in the range of 25 to 60 µM and the Emax was in the range of 25 to 100%.

On to `CC(c1nc2ccc(Cl)cc2c(=O)n1C)N1CCN(C(=O)Nc2ccc(F)cc2F)C(C)C1` (stereo not drawn) [compound 3], for which the EC50 lay in the range of 25 to 60 µM and the Emax was under 25%.

`COCCn1c(C(C)N2CCN(S(=O)(=O)c3ccc(OC)cc3)CC2)nc2ccccc2c1=O` (stereo not drawn) [compound 4]: the EC50 was in the range of 10 to 25 µM and the Emax was in the range of 25 to 100%.

`COCCn1c(C(C)N2CCN(S(=O)(=O)c3ccc(Br)cc3)CC2)nc2ccccc2c1=O` (stereo not drawn) [compound 5]: the EC50 is under 10 µM and the maximal effect (Emax) is over 100%.

Take `COc1ccc(S(=O)(=O)N2CCN(C(C)c3nc4ccccc4c(=O)n3C)CC2)cc1` (stereo not drawn) [compound 6]: the EC50 was 10 to 25 µM and the Emax lay within 25 to 100%.

For the molecule `CC(c1nc2ccccc2c(=O)n1C)N1CCN(S(=O)(=O)c2cccc(C(F)(F)F)c2)CC1` (stereo not drawn) [compound 7], the EC50 fell in the range of 10 to 25 µM and the maximal response (Emax) fell in the range of 25 to 100%.

For the molecule `COc1ccc(NC(=O)N2CCN(C(C)c3nc4ccccc4c(=O)n3C)CC2)c(OC)c1` (stereo not drawn) [compound 8], the EC50 was in the range of 25 to 60 µM and the Emax is under 25%.

As for `CC(c1nc2ccccc2c(=O)n1C)N1CCN(S(=O)(=O)c2ccc(Cl)cc2)CC1` (stereo not drawn) [compound 9], the EC50 fell in the range of 10 to 25 µM and the Emax is over 100%.

Take `CC(c1nc2ccccc2c(=O)n1C)N1CCN(S(=O)(=O)c2ccc(F)cc2)CC1` (stereo not drawn) [compound 10]: the EC50 is 25 to 60 µM and the Emax is 25 to 100%.

For the molecule `Cc1ccc(S(=O)(=O)N2CCN(C(C)c3nc4ccccc4c(=O)n3C)CC2)cc1` (stereo not drawn) [compound 11], the EC50 lay in the range of 10 to 25 µM and the Emax fell in the range of 25 to 100%.

Consider `CC(c1nc2ccccc2c(=O)n1C)N1CCN(S(=O)(=O)c2cccc3ccccc23)CC1` (stereo not drawn) [compound 12], for which the EC50 lay in the range of 10 to 25 µM and the Emax lay within 25 to 100%.

In the case of `CC(c1nc2ccccc2c(=O)n1C)N1CCN(S(=O)(=O)c2ccc(C(C)(C)C)cc2)CC1` (stereo not drawn) [compound 13], the EC50 was 25 to 60 µM and the Emax was under 25%.

Regarding `COc1cc(C(=O)N2CCN(C(C)c3nc4ccc(Cl)cc4c(=O)n3C)CC2)cc(OC)c1OC` (stereo not drawn) [compound 14], the EC50 was 25 to 60 µM and the Emax is under 25%.

For the molecule `Cc1ccccc1C(=O)N1CCN(C(C)c2nc3ccc(Cl)cc3c(=O)n2C)CC1` (stereo not drawn) [compound 15], the EC50 lay within 10 to 25 µM and the Emax is 25 to 100%.

Consider `CCCCC(=O)N1CCN(C(C)c2nc3ccc(Cl)cc3c(=O)n2C)CC1` (stereo not drawn) [compound 16], for which the EC50 is 25 to 60 µM and the Emax was under 25%.

Take `CC(c1nc2ccc(Cl)cc2c(=O)n1C)N1CCN(C(=O)c2ccc(Br)cc2)CC1` (stereo not drawn) [compound 17]: the EC50 fell in the range of 10 to 25 µM and the Emax was 25 to 100%.

Turning to `CC(c1nc2ccc(Cl)cc2c(=O)n1C)N1CCN(C(=O)Nc2ccc(Cl)cc2)CC1` (stereo not drawn) [compound 18], the EC50 is 10 to 25 µM and the Emax lay within 25 to 100%.

For the molecule `CCCn1c(C(C)N2CCN(S(=O)(=O)c3ccccc3)CC2)nc2ccccc2c1=O` (stereo not drawn) [compound 19], the EC50 lay in the range of 10 to 25 µM and the Emax lay within 25 to 100%.

Take `CCCn1c(C(C)N2CCN(S(=O)(=O)c3ccc(Cl)c([N+](=O)[O-])c3)CC2)nc2ccccc2c1=O` (stereo not drawn) [compound 20]: the EC50 lay within 25 to 60 µM and the Emax is under 25%.

As to `CCCn1c(C(C)N2CCN(S(=O)(=O)c3c(C)cc(C)cc3C)CC2)nc2ccccc2c1=O` (stereo not drawn) [compound 21], the half-maximal effective concentration (EC50) fell in the range of 25 to 60 µM and the Emax was in the range of 25 to 100%.

`CCCn1c(C(C)N2CCN(S(=O)(=O)c3ccc(OC)cc3)CC2)nc2ccccc2c1=O` (stereo not drawn) [compound 22]: the EC50 was under 10 µM and the maximum response (Emax) was over 100%.

As to `CCCn1c(C(C)N2CCN(C(=O)Nc3cccc(C#N)c3)CC2)nc2ccccc2c1=O` (stereo not drawn) [compound 23], the EC50 was in the range of 25 to 60 µM and the Emax lay within 25 to 100%.

As to `CCCn1c(C(C)N2CCN(C(=O)Nc3ccc(F)cc3F)CC2)nc2ccccc2c1=O` (stereo not drawn) [compound 24], the EC50 was 25 to 60 µM and the Emax was 25 to 100%.

As for `CCCn1c(C(C)N2CCN(C(=O)Nc3ccc(OC)cc3OC)CC2)nc2ccccc2c1=O` (stereo not drawn) [compound 25], the EC50 was 25 to 60 µM and the Emax was under 25%.

On to `CCCn1c(C(C)N2CCN(S(=O)(=O)c3ccc(Cl)cc3)CC2)nc2ccccc2c1=O` (stereo not drawn) [compound 26], for which the EC50 is under 10 µM and the Emax is over 100%.

Consider `CCCn1c(C(C)N2CCN(S(=O)(=O)c3ccc(Br)cc3)CC2)nc2ccccc2c1=O` (stereo not drawn) [compound 27], for which the EC50 is under 10 µM and the Emax was over 100%.

As to `CCCn1c(C(C)N2CCN(S(=O)(=O)c3ccc(F)cc3)CC2)nc2ccccc2c1=O` (stereo not drawn) [compound 28], the EC50 was in the range of 10 to 25 µM and the Emax fell in the range of 25 to 100%.

`CCCn1c(C(C)N2CCN(S(=O)(=O)c3ccc(C)cc3)CC2)nc2ccccc2c1=O` (stereo not drawn) [compound 29]: the EC50 lay in the range of 10 to 25 µM and the maximal effect (Emax) is over 100%.

With `CCCn1c(C(C)N2CCN(C(=O)c3ccc4ccccc4c3)CC2)nc2ccccc2c1=O` (stereo not drawn) [compound 30], the EC50 was in the range of 25 to 60 µM and the Emax lay in the range of 25 to 100%.

For the molecule `CC(c1nc2ccccc2c(=O)n1C)N1CCN(C(=O)Nc2ccccc2)CC1` (stereo not drawn) [compound 31], the EC50 lay within 10 to 25 µM and the Emax is under 25%.

Consider `Cc1ccccc1C(=O)N1CCN(C(C)c2nc3ccccc3c(=O)n2C)CC1` (stereo not drawn) [compound 32], for which the EC50 was under 10 µM and the Emax was under 25%.

As for `CC(c1nc2ccccc2c(=O)n1C)N1CCN(C(=O)Nc2ccc(Cl)cc2)CC1` (stereo not drawn) [compound 33], the EC50 lay in the range of 25 to 60 µM and the Emax was 25 to 100%.

Consider `CCn1c(C(C)N2CCN(S(=O)(=O)c3ccc(Cl)c([N+](=O)[O-])c3)CC2)nc2ccc(Cl)cc2c1=O` (stereo not drawn) [compound 34], for which the EC50 fell in the range of 25 to 60 µM and the maximal effect (Emax) was under 25%.

Regarding `CCn1c(C(C)N2CCN(S(=O)(=O)c3cccc4ccccc34)CC2)nc2ccc(Cl)cc2c1=O` (stereo not drawn) [compound 35], the EC50 is under 10 µM and the maximal response (Emax) fell in the range of 25 to 100%.

On to `CCn1c(C(C)N2CCN(S(=O)(=O)c3ccc(C)cc3)CC2)nc2ccc(Cl)cc2c1=O` (stereo not drawn) [compound 36], for which the EC50 fell in the range of 25 to 60 µM and the maximal response (Emax) was in the range of 25 to 100%.

Consider `CCn1c(C(C)N2CCN(S(=O)(=O)c3ccccc3)CC2)nc2ccc(Cl)cc2c1=O` (stereo not drawn) [compound 37], for which the EC50 was in the range of 10 to 25 µM and the Emax lay within 25 to 100%.

Turning to `CC(c1nc2ccc(Cl)cc2c(=O)n1C)N1CCN(C(=O)c2ccccc2)CC1` (stereo not drawn) [compound 38], the EC50 was in the range of 25 to 60 µM and the maximal response (Emax) was under 25%.

As for `CC(c1nc2ccc(Cl)cc2c(=O)n1C)N1CCN(C(=O)c2ccccc2Cl)CC1` (stereo not drawn) [compound 39], the EC50 is 25 to 60 µM and the Emax was in the range of 25 to 100%.

Consider `CC(c1nc2ccc(Cl)cc2c(=O)n1C)N1CCN(C(=O)c2ccc(Cl)cc2)CC1` (stereo not drawn) [compound 40], for which the EC50 fell in the range of 10 to 25 µM and the Emax fell in the range of 25 to 100%.

For the molecule `Cc1ccc(S(=O)(=O)N2CCN(C(C)c3nc4ccc(Cl)cc4c(=O)n3C)CC2)cc1` (stereo not drawn) [compound 41], the EC50 is 25 to 60 µM and the Emax was under 25%.

Take `CC(c1nc2ccc(Cl)cc2c(=O)n1C)N1CCN(S(=O)(=O)c2ccc(Br)cc2)CC1` (stereo not drawn) [compound 42]: the EC50 is under 10 µM and the Emax lay within 25 to 100%.

Regarding `CC(c1nc2ccc(Cl)cc2c(=O)n1C)N1CCN(C(=O)Nc2ccccc2)CC1` (stereo not drawn) [compound 43], the half-maximal effective concentration (EC50) was 25 to 60 µM and the Emax was under 25%.

With `CC(c1nc2ccc(Cl)cc2c(=O)n1C)N1CCN(c2ccc(Cl)cc2)CC1` (stereo not drawn) [compound 44], the 50% effective concentration (EC50) was under 10 µM and the Emax lay in the range of 25 to 100%.

With `Cc1ccc(NC(=O)N2CCN(C(C)c3nc4ccc(Cl)cc4c(=O)n3C)CC2)cc1` (stereo not drawn) [compound 45], the EC50 lay in the range of 25 to 60 µM and the Emax was in the range of 25 to 100%.
